Laboratory results taken from US9040713B2, “Methods of managing blood sugar levels and compositions related thereto” (EMORY UNIVERSITY, priority 2010, dated 2015).

Tests used:
GST-IRTK = target: T1, GST-IRTK (Homo sapiens, UniProt P06213); test: IR in vitro kinase assay (histone H2B phosphorylation); assay type: biochemical; conditions: different concentrations of compound
T1 construct: GST-tagged IRTK (GST-IRTK, a.a. 1011-1382); purchased Invitrogen
Method: Parental CHO cells were used as a negative control (bottom panel). The fluorescence-labeled cells were analyzed on flow cytometry. (B) DDN binds to IRTK. UV-visible spectra were scanned from 200 to 800 nm for IRTK fragment in the presence of DDN or its analogue. When DDN binds to IRTK, it elicits the absorption alteration at 560 and 602 nm. (C) DDN protects IRTK from proteolysis. GST-IRTK was subjected to limited trypsin digestion in the presence of DDN (50 μM), ATP-γ-S (5 μM) or both. The reaction mixture was resolved by SDS-PAGE, followed by silver staining (D) DDN increases IRTK activity in vitro.
Parental CHO cells were used as a negative control (Bottom panel). The fluorescence-labeled cells were analyzed on flow cytometry. (B) 4524-E7 protects IRTK from proteolysis. GST-IRTK was subjected to limited trypsin or chymotrypsin digestion in the presence of 4524-E7 (50 μM), ATPyS (5 μM) or both at 37° C. for 5 min. The reaction mixture was resolved by SDS-PAGE, followed by silver staining Cleaved fragments were asterisked. (C) 4524-E7 increases IRTK activity in vitro. Recombinant GST-IRTK, GST-IGFRTK, and GST-EGFRTK were incubated with different concentrations of 4524-E7 or 10 μM 2—NH2-NQ and the kinase activity was examined by monitoring the phosphorylation of histone H2B. (E) In vitro kinase activity of various IRTK/IGF-1R kinase hybrids. The GFP-tagged kinases were expressed in HEK293, immunoprecipitated and incubated with different concentrations of 4524-E7 as indicated. […] Expressions of the kinases were also verified (lower panel).
Recombinant GST-IRTK was incubate with 50 mM tris-HCl (pH7.4), 10 mM MgCl2, and 50 μM ATP with different concentration of compound for 15 min at 25° C. Histone H2B (0.35 μg/ml) and [γ32P]ATP (0.25 μCi/ul) were added and the samples were further incubated for 10 min. The sample was separated on a SDS-polyacrylamide gel and autoradiographed.

MET = MET (Homo sapiens, UniProt P08581); test: RTK kinase profile screen assay; assay type: biochemical; conditions: 10 μM
Sequence of MET (P08581 25-1390): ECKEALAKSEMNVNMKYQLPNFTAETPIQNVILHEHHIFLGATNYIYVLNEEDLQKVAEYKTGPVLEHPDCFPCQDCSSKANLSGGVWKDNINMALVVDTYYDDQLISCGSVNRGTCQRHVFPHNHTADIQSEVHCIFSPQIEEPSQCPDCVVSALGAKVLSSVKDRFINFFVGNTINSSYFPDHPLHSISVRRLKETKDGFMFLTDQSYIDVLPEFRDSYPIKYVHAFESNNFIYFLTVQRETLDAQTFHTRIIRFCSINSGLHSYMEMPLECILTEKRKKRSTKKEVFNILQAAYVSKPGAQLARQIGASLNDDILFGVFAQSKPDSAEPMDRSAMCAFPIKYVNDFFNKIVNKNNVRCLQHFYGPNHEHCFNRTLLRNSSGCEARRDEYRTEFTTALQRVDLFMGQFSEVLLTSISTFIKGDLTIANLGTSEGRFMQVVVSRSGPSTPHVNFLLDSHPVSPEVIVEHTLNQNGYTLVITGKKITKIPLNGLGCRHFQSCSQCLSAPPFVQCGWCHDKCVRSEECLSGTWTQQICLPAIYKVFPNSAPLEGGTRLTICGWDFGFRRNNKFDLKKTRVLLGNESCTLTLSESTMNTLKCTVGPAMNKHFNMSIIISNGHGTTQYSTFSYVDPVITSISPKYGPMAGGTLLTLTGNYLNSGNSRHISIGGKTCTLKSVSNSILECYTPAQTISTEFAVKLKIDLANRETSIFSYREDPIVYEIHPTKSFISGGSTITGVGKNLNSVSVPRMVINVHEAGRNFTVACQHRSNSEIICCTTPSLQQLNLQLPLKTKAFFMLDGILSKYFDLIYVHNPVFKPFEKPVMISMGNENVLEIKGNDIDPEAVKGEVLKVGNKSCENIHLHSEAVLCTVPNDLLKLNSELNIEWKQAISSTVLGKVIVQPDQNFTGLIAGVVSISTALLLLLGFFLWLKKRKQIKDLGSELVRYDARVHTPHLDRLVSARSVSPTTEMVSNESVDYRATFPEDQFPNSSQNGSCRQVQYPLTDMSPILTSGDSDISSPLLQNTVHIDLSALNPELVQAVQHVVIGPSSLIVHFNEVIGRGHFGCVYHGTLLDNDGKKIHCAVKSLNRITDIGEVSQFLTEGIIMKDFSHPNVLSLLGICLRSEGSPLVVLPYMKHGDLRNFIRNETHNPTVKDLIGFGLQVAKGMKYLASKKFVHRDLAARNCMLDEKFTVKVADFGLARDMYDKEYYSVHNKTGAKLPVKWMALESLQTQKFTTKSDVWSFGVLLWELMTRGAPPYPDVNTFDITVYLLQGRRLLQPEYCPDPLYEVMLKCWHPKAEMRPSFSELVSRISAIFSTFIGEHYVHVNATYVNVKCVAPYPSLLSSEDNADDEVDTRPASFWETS

IR = IR (Mus musculus, UniProt P15208); test: IR phosphorylation and downstream signaling in mouse tissues; assay type: in vivo; conditions: for IR and ERK phosphorylations in liver and muscle: 5 mg/kg oral, 1 and 2 h
Sequence of IR (P15208 28-1372): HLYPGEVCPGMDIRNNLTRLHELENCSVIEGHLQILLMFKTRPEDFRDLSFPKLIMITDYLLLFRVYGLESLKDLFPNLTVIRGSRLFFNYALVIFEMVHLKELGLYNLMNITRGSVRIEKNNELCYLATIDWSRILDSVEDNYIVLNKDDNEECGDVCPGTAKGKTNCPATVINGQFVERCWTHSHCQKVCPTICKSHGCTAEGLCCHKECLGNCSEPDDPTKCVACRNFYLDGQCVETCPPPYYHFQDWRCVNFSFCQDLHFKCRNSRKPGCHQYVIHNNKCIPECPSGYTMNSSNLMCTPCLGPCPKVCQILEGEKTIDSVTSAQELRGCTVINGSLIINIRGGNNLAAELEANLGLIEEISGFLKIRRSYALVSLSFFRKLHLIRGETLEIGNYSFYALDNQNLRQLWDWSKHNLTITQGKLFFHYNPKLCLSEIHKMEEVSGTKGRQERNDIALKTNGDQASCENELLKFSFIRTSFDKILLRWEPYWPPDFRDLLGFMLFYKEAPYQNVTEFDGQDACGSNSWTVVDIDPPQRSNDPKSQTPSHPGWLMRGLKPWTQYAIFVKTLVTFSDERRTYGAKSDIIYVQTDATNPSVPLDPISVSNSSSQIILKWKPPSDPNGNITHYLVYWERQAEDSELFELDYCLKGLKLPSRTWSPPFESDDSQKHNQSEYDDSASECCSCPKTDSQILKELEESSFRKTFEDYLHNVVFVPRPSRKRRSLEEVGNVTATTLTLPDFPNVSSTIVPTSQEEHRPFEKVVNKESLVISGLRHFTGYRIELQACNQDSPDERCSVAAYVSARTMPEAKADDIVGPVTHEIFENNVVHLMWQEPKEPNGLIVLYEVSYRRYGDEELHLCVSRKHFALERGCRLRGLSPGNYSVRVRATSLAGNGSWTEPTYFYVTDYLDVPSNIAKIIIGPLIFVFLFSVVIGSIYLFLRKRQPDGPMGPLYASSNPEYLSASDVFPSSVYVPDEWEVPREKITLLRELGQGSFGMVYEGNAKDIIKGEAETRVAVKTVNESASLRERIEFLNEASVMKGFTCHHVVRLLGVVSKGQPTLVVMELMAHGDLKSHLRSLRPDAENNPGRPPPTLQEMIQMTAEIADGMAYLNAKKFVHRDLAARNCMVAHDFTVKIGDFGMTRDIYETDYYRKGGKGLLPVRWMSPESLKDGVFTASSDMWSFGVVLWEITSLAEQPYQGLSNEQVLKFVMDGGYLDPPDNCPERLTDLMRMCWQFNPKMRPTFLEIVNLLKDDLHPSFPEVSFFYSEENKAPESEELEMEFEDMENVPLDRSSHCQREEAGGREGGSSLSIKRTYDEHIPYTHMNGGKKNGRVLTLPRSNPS
Method: (A) DDN reduces blood glucose in C57BL/6J mice. […] Blood glucose was monitored before and after dosing at various time points as indicated (*: P<0.05, **: P<0.01; ***: P<0.001, n=10-13, Two-way ANOVA vs vehicle). (B) DDN provokes IR phosphorylation and its downstream signaling in C57BL/6J mice. Three month-old C57BL/6J mice were starved for 12 h and then orally administrated with vehicle (0.5% methylcellulose), DDN (20 mg/kg) or 2NH2-NQ (20 mg/kg). Cell lysates were prepared from liver and muscle tissues collected at 3, 4, and 5 h after drug administration and analyzed by immunoprecipitation and immunoblotting. (C) DDN quickly activates IR phosphorylation and its downstream signaling. Three-month-old C57BL/6J mice were starved for 12 h and then injected with vehicle, 5 mg/kg DDN or 5 mg/kg 2NH2-NQ through vena cava. After 5 min, the liver was collected and analyzed by immunobloting using specific antibodies.
Three-month-old mice were starved for 12 h and then orally administrated with vehicle (0.5% methylcellulose) or DDN (5 mg/kg). Cell lysates were prepared from liver and muscle tissues collected at 1 and 2 h after drug administration and analyzed by immunoprecipitation and immunoblotting. […] Three-month-old mice were starved for 12 h and then orally administrated with vehicle (0.5% methylcellulose) or DDN (5 mg/kg). Cell lysates were prepared from liver and muscle tissues collected at 1 and 2 h after drug administration and analyzed by immunoprecipitation and immunoblotting. (C) Hypoglycemic function of DDN in db/db mice. The animals were starved for 12 h and then orally injected with vehicle (0.5% methylcellulose) or DDN (5 mg/kg). […] Blood glucose was monitored before and after drug administration at 1-hour intervals (*: P<0.05, **: P<0.01, n=5, Two-way ANOVA vs vehicle). (D) DDN improves the glucose tolerance in ob/ob mice. The animals were starved for 12 h and then orally dosed with vehicle (0.5% methylcellulose) or DDN (5 mg/kg). […] A bonus of glucose (2 gm/kg) was injected intraperitoneally 1 hour later. Blood glucose was measured at 30-min intervals (*: P<0.05, **:P<0.01, n=5, Two-way ANOVA vs vehicle control).
(A) 4524-E7 provokes IR phosphorylation in various tissues of mice. Three-month-old C57BL/6J mice were starved for 12 h and then dosed with vehicle (0.5% methylcellulose) or 4524-E7 (20 mg/kg). Cell lysates from liver, muscle, and WAT were prepared at 3, 4, and 5 h after drug administration and analyzed by immunoblotting. (B) Basal and insulin-stimulated hepatic glucose production rates were measured by hyperinsulinemic-euglycemic clamp. […] (C) Hypoglycemic effect of 4524-E7 in C57BL/6J mice. C57BL/6J mice were starved for 12 h and then orally administrated with vehicle (0.5% methylcellulose) or 4524-E7 (5 mg/kg). Blood glucose was monitored at different time points as indicated (n=8, *: P<0.05, two-way ANOVA). (D) Hypoglycemic effect in db/db mice. db/db mice were starved for 12 h and then orally injected with vehicle (0.5% methylcellulose) or 4524-E7 (5 mg/kg). Blood glucose was monitored at different time points as indicated (n=5, *: P<0.05, two-way ANOVA). (E) Glucose tolerance test in ob/ob mice. The mice were starved for 12 hours and then orally administrated with vehicle or 4524-E7 (5 mg/kg). A bonus of glucose (2 gm/kg) was injected intraperitoneally 1 hour later. Blood glucose was then measured at 30 min intervals (n=13, *: P<0.05; **: P<0.01, two-way ANOVA).
After a 12 h fasting, C57BL/6J mice were orally administrated with 20 mg/kg of compound in 0.5% methylcellulose, and sacrificed at 3 h, 4 h and 5 h following compound administration. Fat tissues were dissected quickly and frozen on dry ice. Fat lysates were prepared and analyzed by Western blotting.

IGF-IR = target: T2, IGF-IR (Mus musculus, UniProt Q60751); test: IGF-IR activation in mouse muscle and liver; assay type: in vivo; conditions: C57BL/6J mice, 20 mg/kg oral
T2 construct: from tissue; host or cells: muscle and liver of C57BL/6J mice
T2 sequence (Q60751 31-1373): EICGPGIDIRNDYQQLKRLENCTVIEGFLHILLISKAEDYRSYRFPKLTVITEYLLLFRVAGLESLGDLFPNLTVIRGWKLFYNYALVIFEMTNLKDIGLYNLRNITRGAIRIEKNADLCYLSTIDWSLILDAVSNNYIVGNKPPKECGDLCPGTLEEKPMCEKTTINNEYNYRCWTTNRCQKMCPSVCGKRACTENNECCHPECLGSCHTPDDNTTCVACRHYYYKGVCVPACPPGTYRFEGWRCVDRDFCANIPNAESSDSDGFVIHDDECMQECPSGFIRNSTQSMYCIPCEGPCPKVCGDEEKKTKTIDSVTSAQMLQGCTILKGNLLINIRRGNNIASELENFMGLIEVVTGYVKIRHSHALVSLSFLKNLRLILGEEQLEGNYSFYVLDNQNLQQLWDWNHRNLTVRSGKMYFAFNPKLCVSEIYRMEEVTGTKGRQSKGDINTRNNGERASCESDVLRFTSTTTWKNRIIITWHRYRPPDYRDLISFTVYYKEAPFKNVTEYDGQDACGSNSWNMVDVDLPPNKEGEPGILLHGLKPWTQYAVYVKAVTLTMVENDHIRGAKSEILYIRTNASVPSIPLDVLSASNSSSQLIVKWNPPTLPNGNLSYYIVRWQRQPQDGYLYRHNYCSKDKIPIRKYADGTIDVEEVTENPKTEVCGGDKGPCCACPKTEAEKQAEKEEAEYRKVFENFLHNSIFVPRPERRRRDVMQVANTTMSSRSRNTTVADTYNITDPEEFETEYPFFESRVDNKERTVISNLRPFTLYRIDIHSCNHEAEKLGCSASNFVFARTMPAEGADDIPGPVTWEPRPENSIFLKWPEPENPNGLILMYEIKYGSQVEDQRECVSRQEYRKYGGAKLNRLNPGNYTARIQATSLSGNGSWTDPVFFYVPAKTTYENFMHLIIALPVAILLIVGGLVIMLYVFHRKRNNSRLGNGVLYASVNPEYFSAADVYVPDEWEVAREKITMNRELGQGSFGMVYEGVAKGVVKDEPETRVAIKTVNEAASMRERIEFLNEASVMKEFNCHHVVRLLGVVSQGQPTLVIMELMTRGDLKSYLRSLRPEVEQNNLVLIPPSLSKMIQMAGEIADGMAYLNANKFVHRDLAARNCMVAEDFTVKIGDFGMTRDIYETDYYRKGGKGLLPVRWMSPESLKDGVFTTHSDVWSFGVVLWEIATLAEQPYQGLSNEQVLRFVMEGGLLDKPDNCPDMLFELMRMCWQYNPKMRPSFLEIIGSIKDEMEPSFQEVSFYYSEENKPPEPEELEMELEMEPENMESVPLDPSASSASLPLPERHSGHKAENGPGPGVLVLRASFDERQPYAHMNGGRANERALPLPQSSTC

T1 sequence (P06213 1011-1382): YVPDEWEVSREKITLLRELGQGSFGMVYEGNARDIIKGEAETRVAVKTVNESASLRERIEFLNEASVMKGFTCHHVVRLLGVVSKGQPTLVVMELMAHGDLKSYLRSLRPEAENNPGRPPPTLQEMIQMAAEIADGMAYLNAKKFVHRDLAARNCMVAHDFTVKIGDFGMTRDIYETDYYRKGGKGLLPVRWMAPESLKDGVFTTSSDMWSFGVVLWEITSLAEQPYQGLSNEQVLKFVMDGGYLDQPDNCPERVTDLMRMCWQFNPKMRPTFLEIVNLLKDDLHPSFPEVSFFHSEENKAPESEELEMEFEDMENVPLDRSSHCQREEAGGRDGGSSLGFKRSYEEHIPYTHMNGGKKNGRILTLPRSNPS

Compound | IRTK kinase activity (histone H2B phosphorylation) (GST-IRTK) | inhibition of MET (MET) | IR tyrosine phosphorylation in the liver, muscle and WAT (IR; C57BL/6J mice, 20 mg/kg oral, 3 h after administration) | IGF-IR activation in muscle or liver (IGF-IR) | IR, Akt and ERK activation in liver (IR; C57BL/6J mice, 5 mg/kg through vena cava, after 5 min) | IR and IRS-1 tyrosine phosphorylation in liver and muscle (IR; C57BL/6J mice, 20 mg/kg oral) | time until demonstrable IR activation in liver and muscle (IR; C57BL/6J mice, 20 mg/kg oral gavage) [h] | IR and ERK phosphorylations in liver and muscle (IR; db/db mice) | time until IR activation in liver and muscle (IR; injected into blood stream through vena cava) [min] | IR and ERK phosphorylations in liver and muscle (IR; ob/ob mice)
O=C1c2ccccc2C(=O)C2SC(Nc3ccc(Cl)cc3)=NC12 (centres unmarked) [4524-E7, 2-((4-chlorophenyl)amino)naphtho[2,3-d]thiazole-4,9(3aH,9aH)-dione] | greatly enhanced | slightly inhibited | all elevated | – | – | – | – | – | – | –
CC(=O)Oc1ccc(OC(C)=O)c2c1C(=O)C(Cl)=C(Cl)C2=O [DDN, 5,8-diacetyloxy-2,3-dichloro-1,4-naphthoquinone] | activated the recombinant IRTK to phosphorylate histone H2B | – | – | did not stimulate IGF-IR activation | quickly activated IR | confirmed IRS-1 tyrosine phosphorylation in both tissues | 3 to 4 | enhanced IR and ERK phosphorylations | 5 | enhanced IR and ERK phosphorylations
